From patent US10899910B2, “Quaternary cationic polymers” (ECOLAB USA, INC., priority 2016, dated 2021)

Experiments:
[1] = Corrosion bubble cell test (Linear Polarization Resistance); settings: 2 ppm with 1% 2ME synergist, 80° C.
Experimental: (§1) Cationic polymer salts were evaluated for corrosion performance as compared to a C12-C18 alkyl dimethyl benzyl ammonium chloride via a bubble test procedure. The bubble test simulates low flow areas where little or no mixing of water and oil occurs. The test was conducted using brine (80% of the brine being 3% sodium chloride brine and 20% of the brine being a hydrocarbon containing 75% LVT-200 kerosene oil and 25% xylene). The brine was placed into kettles and purged with carbon dioxide. The brine was continually purged with carbon dioxide to saturate the brine prior to starting the test. After the test began, the test cell was blanketed with carbon dioxide one hour prior to electrode insertion and through the duration of the test to maintain saturation. The kettles were stirred at 150 revolutions per minute (rpm) for the duration of the test to maintain thermal equilibrium at 80° C. The corrosion rate was measured by Linear Polarization Resistance (LPR) techniques. The working electrode used was carbon steel. The counter and reference electrodes were both 1018 carbon steel. The electrodes were all cleaned and polished prior to testing. Data were collected for three hours before 20 ppm of each of the compositions (containing 2 ppm of each of various pentaquaternary cationic polymer salts or the comparative C12-C18 alkyl dimethyl benzyl ammonium chloride and 1% 2-mercaptoethanol (2ME) as synergist in an organic solvent) was dosed into its respective cell. Data were collected overnight. A low concentration of the compositions was used to differentiate between the compositions.
Corrosion bubble cell tests were performed according to the method of Example A1 to evaluate a hexaquaternary cationic polymer salt for corrosion performance as compared to a C12-C18 alkyl dimethyl benzyl ammonium chloride. Data were collected for three hours before 20 ppm of each of the compositions (containing 2 ppm of a hexaquaternary cationic polymer salt or the comparative C12-C18 alkyl dimethyl benzyl ammonium chloride and 1% 2ME as synergist in an organic solvent) was dosed into its respective cell. Data were collected overnight. A low concentration of the compositions was used to differentiate between the compositions.
as §1, with “six” for “three”, “polyethyleneimine-based” for “pentaquaternary”, “cell. However, for the comparative composition, data was only collected three hours before addition of the compositions.” for “cell.”

[2] = test system: collection of aerobic bacteria from 30 water samples in cooling towers across North America; test: Biofilm reduction (biofilm inhibition test, stain absorbance at 590 nm); type: cell-based; settings: for (Comp. - Single Quat 2)*100 / Single Quat 2: biofilm reduction relative to Single Quat 2
Experimental: Biofilm reduction experiments were conducted to test the efficacy of multi-quaternary cationic polymers compared to single quaternary compounds. Two different compositions were prepared containing single quaternary compounds: a composition (Single Quat 1) comprising about 50% by weight bisoctyl dimethyl ammonium chloride (CAS #5538-94-3) and about 5-10% by weight glycerin; and a composition (Single Quat 2) comprising about 50% by weight didecyl-dimethyl ammonium chloride (CAS #7173-51-5) and about 10-30% by weight ethanol. The test bacteria comprised a collection of aerobic bacteria from 30 water samples in cooling towers across North America. Different concentrations of cationic polymer salts and single quaternary compounds were tested ranging from about 0.8 ppm to about 1000 ppm. Using the biofilm inhibition test protocols, the absorbed stains were extracted and absorbance was measured at 590 nm. The biofilm reduction was calculated by comparing the absorbance of treated vs untreated controls, then averaged over six replicates.

[3] = Surface tension measurement (Tracker tensiometer); type: physicochemical; settings: room temperature
Experimental: Surface tension measurements were conducted on a Tracker tensiometer (Teclis Instruments) at room temperature. Various concentrations of surfactant solutions were prepared and measurements were conducted.
The surface tension as a function of concentration of the cationic surfactant samples were measured and are listed in Table 2, where NT means not tested.

[4] = CO2-saturated brine/hydrocarbon, three hours baseline (Tables 8, 9)

## CCCCCCCCCCCCCCCCCC[N+](C)(C)CC(O)CN(CCN(CCN(CC(O)C[N+](C)(C)C)CC(O)C[N+](C)(C)C)CC(O)C[N+](C)(C)C)CC(O)C[N+](C)(C)C.[Cl-].[Cl-].[Cl-].[Cl-].[Cl-] (stereo not drawn) [Compound 7]
[1]; [4]
  % Protection: 64%
[2]; active conc. 0.8 ppm
  Biofilm reduction: 22.9%
  (Comp. - Single Quat 2)*100 / Single Quat 2: 106.8%
[2]; active conc. 1.6 ppm
  Biofilm reduction: 12.7%
  (Comp. - Single Quat 2)*100 / Single Quat 2: 321.3%
[2]; active conc. 3.0 ppm
  Biofilm reduction: 46.7%
  (Comp. - Single Quat 2)*100 / Single Quat 2: 35.5%
[2]; active conc. 6.0 ppm
  Biofilm reduction: 23.5%
  (Comp. - Single Quat 2)*100 / Single Quat 2: 195.0%
[2]; active conc. 8.0 ppm
  Biofilm reduction: 54.9%
  (Comp. - Single Quat 2)*100 / Single Quat 2: −20.8%
[2]; active conc. 12.0 ppm
  Biofilm reduction: 65.1%
  (Comp. - Single Quat 2)*100 / Single Quat 2: 24.2%
[2]; active conc. 16.0 ppm
  Biofilm reduction: 90.6%
  (Comp. - Single Quat 2)*100 / Single Quat 2: 10.9%
[2]; active conc. 25.0 ppm
  Biofilm reduction: 90.6%
  (Comp. - Single Quat 2)*100 / Single Quat 2: 12.9%
[2]; active conc. 31.0 ppm
  Biofilm reduction: 94.7%
  (Comp. - Single Quat 2)*100 / Single Quat 2: 16.0%
[2]; active conc. 50.0 ppm
  Biofilm reduction: 93.0%
  (Comp. - Single Quat 2)*100 / Single Quat 2: 15.7%
[2]; active conc. 62.0 ppm
  Biofilm reduction: 96.6%
  (Comp. - Single Quat 2)*100 / Single Quat 2: 47.6%
[2]; active conc. 100.0 ppm
  Biofilm reduction: 79.3%
  (Comp. - Single Quat 2)*100 / Single Quat 2: 608.5%
[2]; active conc. 125.0 ppm
  Biofilm reduction: 96.6%
  (Comp. - Single Quat 2)*100 / Single Quat 2: 1517.3%
[2]; active conc. 250.0 ppm
  Biofilm reduction: 97.1%
  (Comp. - Single Quat 2)*100 / Single Quat 2: 15.3%
[2]; active conc. 500.0 ppm
  Biofilm reduction: 97.8%
  (Comp. - Single Quat 2)*100 / Single Quat 2: 6.3%
[2]; active conc. 1000.0 ppm
  Biofilm reduction: 98.4%
  (Comp. - Single Quat 2)*100 / Single Quat 2: 63.7%
[2]; at concentrations as low as about 12 ppm
  biofilm reduction compared with the Single Quat 2 composition: reduced biofilms to a greater extent than the Single Quat 2 composition
[3]; concentration 0.010 %
  Surface tension: 73.70 mN/m
[3]; concentration 0.025 %
  Surface tension: 72.05 mN/m
[3]; concentration 0.050 %
  Surface tension: 64.84 mN/m
[3]; concentration 0.100 %
  Surface tension: 60.93 mN/m
[3]; concentration 0.200 %
  Surface tension: 57.12 mN/m
[3]; concentration 0.500 %
  Surface tension: 55.13 mN/m

## CCCCCCCCCCCCCCCCCC[N+](C)(C)CC(O)CN(CCN(CCN(CC(O)C[N+](C)(C)CCCCCCCCCCCCCCCCCC)CC(O)C[N+](C)(C)CCCCCCCCCCCCCCCCCC)CC(O)C[N+](C)(C)C)CC(O)C[N+](C)(C)C.[Cl-].[Cl-].[Cl-].[Cl-].[Cl-] (stereo not drawn) [Compound 10]
[3]; concentration 0.010 %
  Surface tension: 70.99 mN/m
[3]; concentration 0.025 %
  Surface tension: 61.99 mN/m
[3]; concentration 0.050 %
  Surface tension: 57.33 mN/m
[3]; concentration 0.100 %
  Surface tension: 52.64 mN/m
[3]; concentration 0.200 %
  Surface tension: 50.58 mN/m
[3]; concentration 0.500 %
  Surface tension: 47.92 mN/m
[3]; concentration 1.000 %
  Surface tension: 47.48 mN/m

## CCCCCCCCCCCCCCCCCC[N+](C)(C)CC(O)CN(CCN(CCN(CC(O)C[N+](C)(C)CCCCCCCCCCCCCCCCCC)CC(O)C[N+](C)(C)CCCCCCCCCCCCCCCCCC)CC(O)C[N+](C)(C)C)CC(O)C[N+](C)(C)CCCCCCCCCCCCCCCCCC.[Cl-].[Cl-].[Cl-].[Cl-].[Cl-] (stereo not drawn) [Compound 11]
[1]; [4]
  % Protection: 76%
[3]; concentration 0.010 %
  Surface tension: 63.52 mN/m
[3]; concentration 0.025 %
  Surface tension: 60.01 mN/m
[3]; concentration 0.050 %
  Surface tension: 56.35 mN/m
[3]; concentration 0.100 %
  Surface tension: 53.23 mN/m
[3]; concentration 0.200 %
  Surface tension: 50.16 mN/m
[3]; concentration 0.500 %
  Surface tension: 47.38 mN/m
[3]; concentration 1.000 %
  Surface tension: 46.58 mN/m

## CCCCCCCCCCCCCCCCCC[N+](C)(C)CC(O)CN(CCN(CC(O)C[N+](C)(C)CCCCCCCCCCCCCCCCCC)CC(O)C[N+](C)(C)CCCCCCCCCCCCCCCCCC)CCN(CC(O)C[N+](C)(C)CCCCCCCCCCCCCCCCCC)CC(O)C[N+](C)(C)CCCCCCCCCCCCCCCCCC.[Cl-].[Cl-].[Cl-].[Cl-].[Cl-] (stereo not drawn) [Compound 12]
[1]; [4]
  % Protection: 55%
[3]; concentration 0.010 %
  Surface tension: 63.16 mN/m
[3]; concentration 0.025 %
  Surface tension: 55.77 mN/m
[3]; concentration 0.050 %
  Surface tension: 51.89 mN/m
[3]; concentration 0.100 %
  Surface tension: 49.42 mN/m
[3]; concentration 0.200 %
  Surface tension: 47.02 mN/m
[3]; concentration 0.500 %
  Surface tension: 45.02 mN/m
[3]; concentration 1.000 %
  Surface tension: 44.22 mN/m
[3]; concentration 1.500 %
  Surface tension: 43.46 mN/m
[3]; concentration 2.000 %
  Surface tension: 42.97 mN/m

## CCCCCCCCCCCCCCCCCC[N+](C)(C)CC(O)CN(CCN(CCN(CC(O)C[N+](C)(C)CCCCCCCCCCCCCCCCCC)CC(O)C[N+](C)(C)CCCCCCCCCCCCCCCCCC)CC(O)C[N+](C)(C)CCCCCCCCCCCCCCCCCC)CCN(CC(O)C[N+](C)(C)CCCCCCCCCCCCCCCCCC)CC(O)C[N+](C)(C)CCCCCCCCCCCCCCCCCC.[Cl-].[Cl-].[Cl-].[Cl-].[Cl-].[Cl-] (stereo not drawn) [Compound 13]
[1]; [4]
  % Protection: 52%
[3]; concentration 0.010 %
  Surface tension: 63.28 mN/m
[3]; concentration 0.025 %
  Surface tension: 59.04 mN/m
[3]; concentration 0.050 %
  Surface tension: 55.36 mN/m
[3]; concentration 0.100 %
  Surface tension: 52.65 mN/m
[3]; concentration 0.200 %
  Surface tension: 50.31 mN/m
[3]; concentration 0.500 %
  Surface tension: 48.02 mN/m
[3]; concentration 1.000 %
  Surface tension: 47.78 mN/m

## C12-C18 alkyl dimethyl benzyl ammonium chloride [reference compound]
[1]; six hours baseline (comparative: three hours) (Table 10)
  % Protection: 38%
[1]; [4]
  % Protection: 38%
